Data published in US20250332300A1 (priority 2024, published 2025).
Counter-ions that a name gives are not always drawn. Like-named read-outs stand apart in the source and are kept apart here. Starred links: 1 amine or outer side, 2 acyl side, 3 side chain; linkers in the order of their positions; H or OH if unused. Positions of bridges follow the written chain, without caps; N, C: chain ends. Non-standard residues stand in square brackets, D forms with d. Residues, ends and D or L forms follow the SMILES beside them. *: point of attachment. Trp(5-OH) = N[C@@H](Cc1c[nH]c2ccc(O)cc12)C(=O)O; X9 = CN([C@@H](CCc1cccc(Cl)c1)C(=O)[*:2])[*:1]; NMePhe(4-F) = CN[C@@H](Cc1ccc(F)cc1)C(=O)O; β2hAla(2S) = C[C@@H](CN[*:1])C(=O)[*:2]; NMehPhe = CN[C@@H](CCc1ccccc1)C(=O)O; NMeE = CN[C@@H](CCC(=O)O)C(=O)O; Aad = N[C@@H](CCCC(=O)O)C(=O)O; Gly(cPr) = N[C@H](C(=O)O)C1CC1; aThr = C[C@H](O)[C@H](N)C(=O)O; NMeK = CN[C@@H](CCCCN)C(=O)O; NMeDap = CN[C@@H](CN)C(=O)O; Tfa = O=C(C(F)(F)F)*

What was measured:
Format in all cases: binding
[1] = biological target: T1, human HER2 (23-652) (Homo sapiens, UniProt P04626); assay: Surface plasmon resonance (SPR) for assessment of peptide affinity, human HER2; set-up: towards human HER2 (23-652) and mouse HER2 (23-653); made in house
Description: Each protein was immobilized either onto a SA sensorchip (Cytiva, BR-1005-31) or CM5 sensorchip (Cytiva, BR-1005-30) to a density of 800-2000 RU. […] For the assay setup the same conditions (flow rate, running buffer, peptide dilution) as described above were used. In a first step the Anti Fc IgG Ab (from Human Antibody Capture Kit, Ref. 29234600, Cytiva) was diluted into acetate pH 5.0 at 25 ug/mL and immobilized at a flow rate of 10 uL/min over 360 s to reach a density around 6000 RU. […] The peptides were tested with an association time of 280 s followed by a dissociation time of 3000 s at a flow rate of 30 uL/min. The regeneration was done using 3 M magnesium chloride regeneration solution as obtained with a contact time of 30 s at a flow rate of 10 uL/min. Curve fitting was performed using the BiacoreTM 8K evaluation software.

[2] = biological target: mouse HER2 (23-653) (Mus musculus, UniProt P70424); assay: TR-FRET competition assay for peptide potency, mouse HER2; set-up: mouse HER2 (23-653) using a Cy5 labeled peptide as a probe; made in house; host or cells: mammalian cells; details: TR-FRET competition with Cy5 labeled peptide probe, 0.1 nM mouse HER2, 24 h incubation; read-out: moHER2 TR-FRET IC50
Description: (§1) Both proteins containing a His-, Avi-tag and biotin in Nterminus, were expressed in mammalian cells and produced in house. […] Standard assay conditions consist of 20 uL total volume in white 384-well plates (Greiner), in 10 mM HEPES buffer containing 150 mM NaCl, 3 mM EDTA, 0.05% Tween20 and 1% final DMSO. […] The ratiometric FRET assay readout is calculated from the ratio of the raw data of the two distinct fluorescence signals measured in time resolved mode (fluorescence 665 nm/fluorescence 620 nm). IC50 values were calculated with the standard Novartis in-house assay data analysis software (Helios software application, Novartis Institutes for BioMedical Research, unpublished) using the methods described in Comput. Methods. Programs. Biomed. 2006, 82, 31-37 (regression algorithms for nonlinear dose-response curve fitting).

[3] = biological target: T1, human HER2 (23-652); assay: TR-FRET competition assay for peptide potency, human HER2; set-up: towards human HER2 (23-652) and mouse HER2 (23-653); made in house; host or cells: mammalian cells; details: read-out: huHER2 TR-FRET IC50
Description: as §1

[4] = SPR, human HER2 extracellular domain, 25° C., 1:1 binding model, read-out: huHER2-SPR-ONC KD

SMILES	Kd [1, 4]	IC50 [2]	also measured
CC(=O)NCCCC[C@H]1C(=O)N[C@@H](Cc2c[nH]c3ccc(O)cc23)C(=O)N[C@@H](Cc2c[nH]c3ccccc23)C(=O)N[C@@H](C2CC2)C(=O)N(C)[C@H](C(=O)N(C)[C@@H](Cc2ccc(F)cc2)C(N)=O)CNC(=O)CCC[C@H](NC(C)=O)C(=O)N[C@@H](Cc2ccc(O)cc2)C(=O)N[C@@H](CO)C(=O)N(C)[C@@H](CCc2cccc(Cl)c2)C(=O)N1C [Example A8, (3S,6S,9S,12S,15S,18S,21S,24S,27S)-9-((1H-indol-3-yl)methyl)-27-acetamido-15-(4-acetamidobutyl)-N-((S)-1-amino-3-(4-fluorophenyl)-1-oxopropan-2-yl)-18-(3-chlorophenethyl)-6-cyclopropyl-12-((5-hydroxy-1H-indol-3-yl)methyl)-24-(4-hydroxybenzyl)-21-(hydroxymethyl)-N,4,16,19-tetramethyl-5,8,11,14,17,20,23,26,31-nonaoxo-1,4,7,10,13,16,19,22,25-nonaazacyclohentriacontane-3-carboxamide] (Ac-[Aad]YS[X9][NMeK](Ac)[Trp(5-OH)]W[Gly(cPr)][NMeDap][NMePhe(4-F)]-NH2; lactam 1-9)	1 nM	2.3 nM	
CC(=O)N[C@H]1CCCC(=O)NC[C@@H](C(=O)N(C)[C@@H](Cc2ccc(F)cc2)C(N)=O)N(C)C(=O)[C@H](C2CC2)NC(=O)[C@H](Cc2c[nH]c3ccccc23)NC(=O)[C@H](Cc2c[nH]c3ccc(O)cc23)NC(=O)[C@H](CCCCNC(=O)C(F)(F)F)N(C)C(=O)[C@H](CCc2ccccc2)N(C)C(=O)[C@H](CO)NC(=O)[C@H](Cc2ccc(O)cc2)NC1=O [Example A4, (3S,6S,9S,12S,15S,18S,21S,24S,27S)-9-((1H-indol-3-yl)methyl)-27-acetamido-N-((S)-1-amino-3-(4-fluorophenyl)-1-oxopropan-2-yl)-6-cyclopropyl-12-((5-hydroxy-1H-indol-3-yl)methyl)-24-(4-hydroxybenzyl)-21-(hydroxymethyl)-N,4,16,19-tetramethyl-5,8,11,14,17,20,23,26,31-nonaoxo-18-phenethyl-15-(4-(2,2,2-trifluoroacetamido)butyl)-1,4,7,10,13,16,19,22,25-nonaazacyclohentriacontane-3-carboxamide] (Ac-[Aad]YS[NMehPhe][NMeK](Tfa)[Trp(5-OH)]W[Gly(cPr)][NMeDap][NMePhe(4-F)]-NH2; lactam 1-9)	8.9 nM	29 nM	
CC[N+]1=C(/C=C/C=C/C=C2/N(CCCCCC(=O)NCCOCCOCCOCCOCCOCCOCCOCCOCCOCCOCCC(=O)NCCCC[C@H](NC(=O)[C@H](Cc3ccc(F)cc3)N(C)C(=O)[C@@H]3CNC(=O)CCC[C@H](NC(C)=O)C(=O)N[C@@H](Cc4ccc(O)cc4)C(=O)N[C@@H](CO)C(=O)N(C)[C@@H](CCc4ccccc4)C(=O)N(C)[C@@H](CCCCNC(C)=O)C(=O)N[C@@H](Cc4c[nH]c5ccc(O)cc45)C(=O)N[C@@H](Cc4c[nH]c5ccccc45)C(=O)N[C@@H](C4CC4)C(=O)N3C)C(N)=O)c3ccc(S(=O)(=O)O)cc3C2(C)C)C(C)(C)c2cc(S(=O)(=O)[O-])ccc21 [Example D7]			Kd [1]: < 0.1 nM
CC(=O)N[C@H]1CCCC(=O)NC[C@@H](C(=O)N(C)[C@@H](Cc2ccc(F)cc2)C(=O)N[C@@H](CCCCNC(=O)CN2CCN(CC(=O)O)CCN(CC(=O)O)CCN(CC(=O)O)CC2)C(N)=O)N(C)C(=O)[C@H]([C@H](C)O)NC(=O)[C@H](Cc2c[nH]c3ccccc23)NC(=O)[C@H](Cc2c[nH]c3ccc(O)cc23)NC(=O)[C@H](CCCCNC(=O)CCO)N(C)C(=O)[C@H](CCc2ccccc2)N(C)C(=O)[C@H](CO)NC(=O)[C@H](Cc2ccc(O)cc2)NC1=O [Example C22]	0.5 nM		
CC(=O)NCCCC[C@H]1C(=O)N[C@@H](Cc2c[nH]c3ccc(O)cc23)C(=O)N[C@@H](Cc2c[nH]c3ccccc23)C(=O)N[C@@H]([C@H](C)O)C(=O)N(C)[C@H](C(=O)N(C)[C@@H](Cc2ccc(F)cc2)C(N)=O)CNC(=O)CCC[C@H](NC(C)=O)C(=O)N[C@@H](Cc2ccc(O)cc2)C(=O)N[C@@H](CO)C(=O)N(C)[C@@H](CCc2ccccc2)C(=O)N1C [Example A6, (3S,6S,9S,12S,15S,18S,21S,24S,27S)-9-((1H-indol-3-yl)methyl)-27-acetamido-15-(4-acetamidobutyl)-N-((S)-1-amino-3-(4-fluorophenyl)-1-oxopropan-2-yl)-12-((5-hydroxy-1H-indol-3-yl)methyl)-24-(4-hydroxybenzyl)-6-((S)-1-hydroxyethyl)-21-(hydroxymethyl)-N,4,16,19-tetramethyl-5,8,11,14,17,20,23,26,31-nonaoxo-18-phenethyl-1,4,7,10,13,16,19,22,25-nonaazacyclohentriacontane-3-carboxamide] (Ac-[Aad]YS[NMehPhe][NMeK](Ac)[Trp(5-OH)]W[aThr][NMeDap][NMePhe(4-F)]-NH2; lactam 1-9)			IC50 [3]: 1.3 nM
CC[N+]1=C(/C=C/C=C/C=C2/N(CCCCCC(=O)NCCCC[C@H](NC(=O)[C@H](Cc3ccc(F)cc3)N(C)C(=O)[C@@H]3CNC(=O)CCC[C@H](NC(C)=O)C(=O)N[C@@H](Cc4ccc(O)cc4)C(=O)N[C@@H](CO)C(=O)N(C)[C@@H](CCc4ccccc4)C(=O)N(C)[C@@H](CCCCNC(C)=O)C(=O)N[C@@H](Cc4c[nH]c5ccc(O)cc45)C(=O)N[C@@H](Cc4c[nH]c5ccccc45)C(=O)N[C@@H](C4CC4)C(=O)N3C)C(N)=O)c3ccc(S(=O)(=O)O)cc3C2(C)C)C(C)(C)c2cc(S(=O)(=O)[O-])ccc21 [Example D1]	< 0.1 nM		
CC(=O)NCCCC[C@H]1C(=O)N[C@@H](Cc2c[nH]c3ccc(O)cc23)C(=O)N[C@@H](Cc2c[nH]c3ccccc23)C(=O)N[C@@H](C2CC2)C(=O)N(C)[C@H](C(=O)N(C)[C@@H](Cc2ccc(F)cc2)C(N)=O)CCC(=O)NC[C@H](C)C(=O)N[C@@H](Cc2ccc(O)cc2)C(=O)N[C@@H](CO)C(=O)N(C)[C@@H](CCc2ccccc2)C(=O)N1C [Example A22, (3S,6S,9S,12S,15S,18S,21S,24S,30S)-6-((1H-indol-3-yl)methyl)-12-(4-acetamidobutyl)-N-((S)-1-amino-3-(4-fluorophenyl)-1-oxopropan-2-yl)-3-cyclopropyl-9-((5-hydroxy-1H-indol-3-yl)methyl)-21-(4-hydroxybenzyl)-18-(hydroxymethyl)-N,1,13,16,24-pentamethyl-2,5,8,11,14,17,20,23,27-nonaoxo-15-phenethyl-1,4,7,10,13,16,19,22,26-nonaazacyclotriacontane-30-carboxamide] ([β2hAla(2S)]YS[NMehPhe][NMeK](Ac)[Trp(5-OH)]W[Gly(cPr)][NMeE][NMePhe(4-F)]-NH2; lactam N-9)	9.7 nM	9.9 nM	
CC[N+]1=C(/C=C/C=C/C=C2/N(CCCCCC(=O)NCCOCCOCCOCCOCCOCCOCCOCCOCCOCCOCCC(=O)N[C@H]3CCCC(=O)NC[C@@H](C(=O)N(C)[C@@H](Cc4ccc(F)cc4)C(=O)N[C@@H](CCCCNC(=O)CN4CCN(CC(=O)O)CCN(CC(=O)O)CCN(CC(=O)O)CC4)C(N)=O)N(C)C(=O)[C@H](C4CC4)NC(=O)[C@H](Cc4c[nH]c5ccccc45)NC(=O)[C@H](Cc4c[nH]c5ccc(O)cc45)NC(=O)[C@H](CCCCNC(C)=O)N(C)C(=O)[C@H](CCc4ccccc4)N(C)C(=O)[C@H](CO)NC(=O)[C@H](Cc4ccc(O)cc4)NC3=O)c3ccc(S(=O)(=O)O)cc3C2(C)C)C(C)(C)c2cc(S(=O)(=O)[O-])ccc21 [Example D6]	0.1 nM		
CC(=O)NCCCC[C@H]1C(=O)N[C@@H](Cc2c[nH]c3ccc(O)cc23)C(=O)N[C@@H](Cc2c[nH]c3ccccc23)C(=O)N[C@@H](C2CC2)C(=O)N(C)[C@H](C(=O)N(C)[C@@H](Cc2ccc(F)cc2)C(=O)N[C@@H](CCCCNC(=O)CN2CCN(CC(=O)O)CCN(CC(=O)O)CCN(CC(=O)O)CC2)C(N)=O)CNC(=O)CCC[C@H](NC(C)=O)C(=O)N[C@@H](Cc2ccc(O)cc2)C(=O)N[C@@H](CO)C(=O)N(C)[C@@H](CCc2ccccc2)C(=O)N1C [Example C29]		0.2 nM	
CC[N+]1=C(/C=C/C=C/C=C2/N(CCCCCC(=O)NCCCC[C@H](NC(=O)[C@H](Cc3ccc(F)cc3)N(C)C(=O)[C@@H]3CNC(=O)CC[C@H](NC(C)=O)C(=O)N[C@@H](Cc4ccc(O)cc4)C(=O)N[C@@H](CO)C(=O)N(C)[C@@H](CCc4ccccc4)C(=O)N(C)[C@@H](CCCCNC(C)=O)C(=O)N[C@@H](Cc4c[nH]c5ccc(O)cc45)C(=O)N[C@@H](Cc4c[nH]c5ccccc45)C(=O)N[C@@H]([C@H](C)O)C(=O)N3C)C(N)=O)c3ccc(S(=O)(=O)O)cc3C2(C)C)C(C)(C)c2cc(S(=O)(=O)O)ccc21 [Example D4]			Kd [1]: 0.4 nM
